Test results published in US20220118036A1, “USE OF MORCHELLA ACTIVE SUBSTANCE” (GRAPE KING BIO LTD., priority 2020, published 2022).
Values joined by “and” are separate entries in the source; they are usually repeats but may differ in a detail not shown here. Equal entries are not always repeated.

Test system: mouse skeletal muscle cells C2C12
Assay: Dexamethasone-induced muscle atrophy of differentiated C2C12 myotubes (myotube width, H&E staining)
Type: cell-based
Conditions: 1 μM Dexamethasone alone, 24 hours, mean±SD, n = 60, control 30.39 ± 4.52
Procedure: Currently, there have been experiments using Dexamethasone to induce muscle atrophy in mouse skeletal muscle cell C2C12. […] This paper uses a synthetic glucocorticoid-Dexamethasone to induce differentiated C2C12 atrophy as a model of muscle atrophy for sarcopenia study, in which the severity of muscle atrophy is measured according to the observation of morphology and diameter of the myotubes. According to such a method, in this experiment, the differentiated mouse skeletal muscle cell C2C12 is stained with H&E (hematoxylin and eosin) to assess the effect of the Morchella mycelium active substance in muscle atrophy. The experimental method is as follows:
(1) After the mouse skeletal muscle cells C2C12 was collected and the cell suspension concentration was adjusted, the cells were plated in a 6-well plate at a cell density of 1×10^5-2×10^5 with the cell growth medium (DMEM, 10% Fetal Bovine Serum).
(2) The 6-well plate of (1) was placed in a 5% CO2 incubator at 37° C. for two days and then observed under a microscope. […]
(5) Each test was repeated 3 times, and the numerical value was expressed as mean±SD (standard deviation). The statistical method used paired t-test to analyze the percentages of each item, and the significant difference was determined when the p-value was less than 0.05.

`C[C@@H]1C[C@H]2[C@@H]3CCC4=CC(=O)C=C[C@]4(C)[C@@]3(F)[C@@H](O)C[C@]2(C)[C@@]1(O)C(=O)CO` [Dexamethasone] was tested, and the myotube diameter was 19.98 μm and 19.98 ± 6.42 μm.
